Common to all, as to assay type: nucleic-acid assay
For assay [1], the system named is Hairpin ribozyme RNA. Briefly: Binding affinity to double helical RNA hairpin HRP4 in sodium acetate buffer at pH 5.5.
Assay [2] has as its system Hairpin ribozyme RNA. Briefly: Binding affinity to double helical RNA hairpin HRP2 in sodium acetate buffer at pH 5.5.
Assay [3] deals with Hairpin ribozyme RNA. Put plainly: Binding affinity to double helical RNA hairpin HRP1 in sodium acetate buffer at pH 5.5.
The test system of assay [4] is Hairpin ribozyme RNA. Briefly: Binding affinity to double helical RNA hairpin HRP3 in sodium acetate buffer at pH 5.5.

With `Cc1cn(CC(=O)N(CCNC(=O)CN(CCNC(=O)CN(CCNC(=O)CN(CCNC(=O)CN(CCNC(=O)[C@@H](N)CCCCN)C(=O)Cn2ccc(N)nc2=O)C(=O)Cn2cc(C)c(=O)[nH]c2=O)C(=O)Cn2ccc(N)nc2=O)C(=O)Cn2cnc3nc(N)[nH]c(=O)c32)CC(=O)NCCN(CC(N)=O)C(=O)Cn2ccc(N)nc2=O)c(=O)[nH]c1=O`, the Ka in the assay with Hairpin ribozyme RNA [1] amounted to 0.09 ×10⁶ /M; with Hairpin ribozyme RNA [2], 0.4 ×10⁶ /M; in the assay with Hairpin ribozyme RNA [3], 1.5 ×10⁶ /M; in the assay with Hairpin ribozyme RNA [4], 0.2 ×10⁶ /M.

`Cc1cn(CC(=O)N(CCNC(=O)CN(CCNC(=O)CN(CCNC(=O)CN(CCNC(=O)CN(CCNC(=O)[C@@H](N)CCCCN)C(=O)Cn2ccc(N)nc2=O)C(=O)Cn2cc(C)c(=O)[nH]c2=O)C(=O)Cn2ccc(N)nc2=O)C(=O)Cn2cc(C)c(=O)[nH]c2=O)CC(=O)NCCN(CC(N)=O)C(=O)Cn2ccc(N)nc2=O)c(=O)[nH]c1=O`: the Ka in the assay on Hairpin ribozyme RNA [1] stood at 0.02 ×10⁶ /M; with Hairpin ribozyme RNA [2], 47 ×10⁶ /M; in the assay with Hairpin ribozyme RNA [3], 2.7 ×10⁶ /M; with Hairpin ribozyme RNA [4] it was 0.5 ×10⁶ /M.

Consider `Cc1cn(CC(=O)N(CCNC(=O)CN(CCNC(=O)CN(CCNC(=O)CN(CCNC(=O)CN(CCNC(=O)[C@@H](N)CCCCN)C(=O)Cn2ccc(N)nc2=O)C(=O)Cn2cc(C)c(=O)[nH]c2=O)C(=O)Cn2ccc(N)nc2=O)C(=O)Cn2ccc(N)nc2=O)CC(=O)NCCN(CC(N)=O)C(=O)Cn2ccc(N)nc2=O)c(=O)[nH]c1=O`, for which the Ka was 0.2 ×10⁶ /M in the assay with Hairpin ribozyme RNA [1], 0.4 ×10⁶ /M in the assay on Hairpin ribozyme RNA [2], 84 ×10⁶ /M in the assay with Hairpin ribozyme RNA [3] and 0.5 ×10⁶ /M with Hairpin ribozyme RNA [4].

For the molecule `Cc1cn(CC(=O)N(CCNC(=O)CN(CCNC(=O)CN(CCNC(=O)CN(CCNC(=O)[C@@H](N)CCCCN)C(=O)Cn2ccc(N)nc2=O)C(=O)Cn2cc(C)c(=O)[nH]c2=O)C(=O)Cn2ccc(N)nc2=O)CC(=O)NCCN(CC(=O)NCCN(CC(N)=O)C(=O)Cn2ccc(N)nc2=O)C(=O)Cn2cc(C)c(=O)[nH]c2=O)c(N)nc1=O`, the Ka in the assay on Hairpin ribozyme RNA [1] worked out at 0.77 ×10⁶ /M; in the assay with Hairpin ribozyme RNA [2] it was 0.82 ×10⁶ /M; with Hairpin ribozyme RNA [3], 0.51 ×10⁶ /M; in the assay with Hairpin ribozyme RNA [4] it was 1.01 ×10⁶ /M.

As for `Cc1cn(CC(=O)N(CCNC(=O)CN(CCNC(=O)CN(CCNC(=O)CN(CCNC(=O)CN(CCNC(=O)[C@@H](N)CCCCN)C(=O)Cn2ccc(N)nc2=O)C(=O)Cn2cc(C)c(=O)[nH]c2=O)C(=O)Cn2ccc(N)nc2=O)C(=O)Cn2cnc3ncnc(N)c32)CC(=O)NCCN(CC(N)=O)C(=O)Cn2ccc(N)nc2=O)c(=O)[nH]c1=O`, the Ka was 0.05 ×10⁶ /M in the assay on Hairpin ribozyme RNA [1], 1.6 ×10⁶ /M in the assay with Hairpin ribozyme RNA [2], 6 ×10⁶ /M in the assay on Hairpin ribozyme RNA [3] and 0.7 ×10⁶ /M in the assay on Hairpin ribozyme RNA [4].

For the origin of these results see ChEMBL document CHEMBL1759876, “PNA containing isocytidine nucleobase: synthesis and recognition of double helical RNA” (Bioorg Med Chem Lett, 2011).
